Like-named read-outs stand apart in the source and are kept apart here.
Experiments:
[1] = system: hTERT-HME1 cells carrying KRAS (G13D) KI; test: Drug assay: cell viability by ATP content (96 h), KI versus parental cells; ΔKI pharmarray analysis
[2] = system: hTERT-HME1 DKI cells carrying PIK3CA (H1047R) and EGFR (delE746-A750); test: Drug assay: cell viability by ATP content (96 h), DKI versus parental cells; ΔKI pharmarray analysis
[3] = system: hTERT-HME1 cells carrying EGFR (delE746-A750) KI; test: Drug assay: cell viability by ATP content (CellTiter-Glo, 96 h), KI versus parental cells; ΔKI pharmarray analysis
[4] = system: hTERT-HME1 cells carrying PIK3CA (E545K and H1047R) KI; test: Drug assay: cell viability by ATP content (96 h) and Hoechst/propidium iodide staining, KI versus parental cells; ΔKI pharmarray analysis
[5] = system: hTERT-HME1 cells carrying BRAF (V600E) KI; test: Drug assay: cell viability by ATP content (96 h), KI versus parental cells; ΔKI pharmarray analysis
[6] = system: hTERT-HME1 DKI cells carrying PIK3CA (H1047R) and EGFR (delE746-A750)

CO[C@H]1/C=C\C=C(/C)C(=O)NC2=CC(=O)C(NCCN(C)C)=C(C[C@@H](C)C[C@H](OC)[C@H](O)[C@@H](C)/C=C(\C)[C@@H]1OC(N)=O)C2=O [17-DMAG]
ΔKI KRAS ([1]; Log(M) −6.19): 0
ΔKI KRAS ([1]; Log(M) −6.89): 0
ΔKI KRAS ([1]; Log(M) −7.00): 0
ΔKI KRAS ([1]; Log(M) −7.40): 0
ΔKI KRAS ([1]; Log(M) −7.70): 0
ΔKI KRAS ([1]; Log(M) −8.10): 0
ΔKI KRAS ([1]; Log(M) −8.40): 0
ΔKI PIK3CA + EGFR ([2]; Log(M) −6.19): 1.4
ΔKI PIK3CA + EGFR ([2]; Log(M) −6.89): 4.46
ΔKI PIK3CA + EGFR ([2]; Log(M) −7.00): 0
ΔKI PIK3CA + EGFR ([2]; Log(M) −7.40): −0.12
ΔKI PIK3CA + EGFR ([2]; Log(M) −7.70): 0
ΔKI PIK3CA + EGFR ([2]; Log(M) −8.10): −1.02
ΔKI PIK3CA + EGFR ([2]; Log(M) −8.40): 0
ΔKI EGFR ([3]; Log(M) −6.19): −1.5
ΔKI EGFR ([3]; Log(M) −6.89): −12.5
ΔKI EGFR ([3]; Log(M) −7.00): 0
ΔKI EGFR ([3]; Log(M) −7.40): 0
ΔKI EGFR ([3]; Log(M) −7.70): −8.56
ΔKI EGFR ([3]; Log(M) −8.10): 0
ΔKI EGFR ([3]; Log(M) −8.40): 0
pharmarray: differential response of EGFR mutated cells versus WT ([3]; hTERT-HME1, FIG. 5B, 5E): less susceptible than their WT counterpart
ΔKI PIK3CA ([4]; Log(M) −6.19): 0
ΔKI PIK3CA ([4]; Log(M) −6.89): 0
ΔKI PIK3CA ([4]; Log(M) −7.00): 0
ΔKI PIK3CA ([4]; Log(M) −7.40): 0
ΔKI PIK3CA ([4]; Log(M) −7.70): 0
ΔKI PIK3CA ([4]; Log(M) −8.10): 0
ΔKI PIK3CA ([4]; Log(M) −8.40): 0
ΔKI BRAF ([5]; Log(M) −6.19): 0
ΔKI BRAF ([5]; Log(M) −6.89): 0
ΔKI BRAF ([5]; Log(M) −7.00): 0
ΔKI BRAF ([5]; Log(M) −7.40): 0
ΔKI BRAF ([5]; Log(M) −7.70): 0
ΔKI BRAF ([5]; Log(M) −8.10): 0
ΔKI BRAF ([5]; Log(M) −8.40): 0

N.N.[Cl][Pt][Cl] [Cisplatin]
ΔKI KRAS ([1]; Log(M) −4.70): 0
ΔKI KRAS ([1]; Log(M) −5.00): 0
ΔKI KRAS ([1]; Log(M) −5.70): 0
ΔKI KRAS ([1]; Log(M) −6.00): 0
ΔKI KRAS ([1]; Log(M) −6.70): 0
ΔKI KRAS ([1]; Log(M) −7.00): 0
ΔKI PIK3CA + EGFR ([2]; Log(M) −4.70): 0
ΔKI PIK3CA + EGFR ([2]; Log(M) −5.00): 4.9
ΔKI PIK3CA + EGFR ([2]; Log(M) −5.70): 2.16
ΔKI PIK3CA + EGFR ([2]; Log(M) −6.00): 0.7
ΔKI PIK3CA + EGFR ([2]; Log(M) −6.70): 0
ΔKI PIK3CA + EGFR ([2]; Log(M) −7.00): −1.32
ΔKI EGFR ([3]; Log(M) −4.70): 0
ΔKI EGFR ([3]; Log(M) −5.00): 4.84
ΔKI EGFR ([3]; Log(M) −5.70): 0
ΔKI EGFR ([3]; Log(M) −6.00): 0
ΔKI EGFR ([3]; Log(M) −6.70): 0
ΔKI EGFR ([3]; Log(M) −7.00): 0
ΔKI PIK3CA ([4]; Log(M) −4.70): 0
ΔKI PIK3CA ([4]; Log(M) −5.00): 0
ΔKI PIK3CA ([4]; Log(M) −5.70): 0
ΔKI PIK3CA ([4]; Log(M) −6.00): 0
ΔKI PIK3CA ([4]; Log(M) −6.70): 0
ΔKI PIK3CA ([4]; Log(M) −7.00): 0
ΔKI BRAF ([5]; Log(M) −4.70): 3.82
ΔKI BRAF ([5]; Log(M) −5.00): 0
ΔKI BRAF ([5]; Log(M) −5.70): 7.62
ΔKI BRAF ([5]; Log(M) −6.00): 0
ΔKI BRAF ([5]; Log(M) −6.70): 0
ΔKI BRAF ([5]; Log(M) −7.00): 0

COC(=O)C1=CC[C@@]23CC[C@@H]([C@@](C)(/C=C/C=C(\C)C(=O)O)OC2=O)[C@@]3(OC(C)=O)CC1 [Pseudolaric Acid B]
ΔKI KRAS [1]: 0
ΔKI KRAS ([1]; Log(M) −6.48): 0
ΔKI PIK3CA + EGFR ([2]; Log(M) −6.48): 0.54
ΔKI EGFR [3]: 0
ΔKI EGFR ([3]; Log(M) −6.48): 0
ΔKI PIK3CA [4]: 0
ΔKI PIK3CA ([4]; Log(M) −6.48): 0
ΔKI BRAF ([5]; Log(M) −6.48): 0

C[C@]12CC[C@@H]3c4ccc(O)cc4C[C@@H](CCCCCCCCC[S+]([O-])CCCC(F)(F)C(F)(F)F)[C@H]3[C@@H]1CC[C@@H]2O (stereo partly shown) [Fulvestrant]
ΔKI PIK3CA + EGFR ([6]; Log(M) −4.05): 0
ΔKI PIK3CA + EGFR ([6]; Log(M) −4.52): 0
ΔKI PIK3CA + EGFR ([6]; Log(M) −5.00): 0

O=c1[nH]cc(F)c(=O)[nH]1 [5-FU]
ΔKI KRAS [1]: 0
ΔKI PIK3CA + EGFR [2]: 0
ΔKI EGFR [3]: 0
ΔKI PIK3CA [4]: 0
ΔKI BRAF ([5]; listed as OGC-083): 0

c1cc(-c2cnn3cc(-c4ccc(OCCN5CCCCC5)cc4)cnc23)ccn1 [Compound C]
ΔKI KRAS [1]: 0
ΔKI KRAS ([1]; Log(M) −4.70): 0
ΔKI PIK3CA + EGFR [2]: 0
ΔKI PIK3CA + EGFR ([2]; Log(M) −4.70): 0
ΔKI EGFR [3]: 0
ΔKI EGFR ([3]; Log(M) −4.70): 0
ΔKI PIK3CA [4]: 0
ΔKI PIK3CA ([4]; Log(M) −4.70): 0
ΔKI BRAF [5]: 0
ΔKI BRAF ([5]; Log(M) −4.70): 0

CCCCC/C=C\C/C=C\C/C=C\C/C=C\CCCC(=O)Nc1ccc(O)cc1 [AM404]
ΔKI KRAS [1]: 0
ΔKI KRAS ([1]; Log(M) −4.70): 0
ΔKI PIK3CA + EGFR [2]: 0
ΔKI PIK3CA + EGFR ([2]; Log(M) −4.70): 0
ΔKI EGFR [3]: 0
ΔKI EGFR ([3]; Log(M) −4.70): 0
ΔKI PIK3CA [4]: 0
ΔKI PIK3CA ([4]; Log(M) −4.70): 0
ΔKI BRAF [5]: −0.12
ΔKI BRAF ([5]; Log(M) −4.70): −1.68

COc1ccc2c(c1)c(CC(=O)N1CCOCC1)c(C)n2C(=O)c1ccc(Cl)cc1 [IMMA (BML-190)]
ΔKI KRAS [1]: 0
ΔKI KRAS ([1]; Log(M) −3.90): 0
ΔKI PIK3CA + EGFR [2]: 0
ΔKI PIK3CA + EGFR ([2]; Log(M) −3.90): 0
ΔKI EGFR [3]: 0
ΔKI EGFR ([3]; Log(M) −3.90): 0
ΔKI PIK3CA [4]: 0
ΔKI PIK3CA ([4]; Log(M) −3.90): 0.72
ΔKI BRAF [5]: 0
ΔKI BRAF ([5]; Log(M) −3.90): 0

Source: patent publication US20120115896A1, “ISOGENIC HUMAN CELL LINES COMPRISING MUTATED CANCER ALLELES AND PROCESS USING THE CELL LINES” (priority 2008, published 2012)
